In patent publication US11279714B2, “Anti-infective compounds” (priority 2014, dated 2022) one finds MIC50 and melting point data, which are given here for 34 compounds.

Data set [1] deals with M. tuberculosis H37Rv expressing the green fluorescent protein (H37Rv-GFP). The data set is described as follows: microbe, parasite or virus in culture. It counts as cell-based. The settings on record: Mycobacterium tuberculosis, H37RV, 120 h; read-out: QUM (MIC50).
Data set [2] concerns Raw 264.7 cells infected with H37Rv-GFP. The data set is described as follows: microbe, parasite or virus in culture. It is filed as cell-based, M. tuberculosis. The settings on record: Mycobacterium tuberculosis, H37RV, 120 h; read-out: QIM (MIC50).

≈ marks a conversion by molar mass, not a printed value. Bounds are passed on as bounds.

In turn, `CN(C)C(=O)C1CCN(c2nc3sc(C(=O)n4nc(-c5ccc(N)cc5)cc4O)cc3s2)CC1` [Compound 198] registered a melting point of 269 °C. Further, in data set [1], the MIC50 was over 20 µM. Besides, in data set [2], the MIC50 is over 20 µM.

In turn, `CC(=O)c1ccc(NC(=O)c2cc3sc(N4CCOCC4)nc3s2)cc1` [Compound 188] had a melting point of 248 °C. For the same compound, the MIC50 in data set [1] was under 1 µM. In addition, the MIC50 in data set [2] is under 1 µM.

As to `Cc1nc2cc(NC(=O)c3cc4sc(N5CCC(O)CC5)nc4s3)ccc2o1` [Compound 122], the melting point was determined as 238.5 °C. Moreover, in data set [1], the MIC50 is under 1 µM. In addition, the MIC50 in data set [2] is under 1 µM.

Compound `COc1ccc(NC(=O)c2ccc3nc(N4CCCCC4)sc3c2)cc1` [Compound 5] returned a melting point of 214 °C. In data set [1], the MIC50 is over 20 µM. Moreover, the MIC50 in data set [2] was over 20 µM.

For `CCC1COCCN1c1nc2sc(C(=O)Nc3ccc4oc(C)nc4c3)cc2s1` (stereo not drawn) [Compound 151], the melting point was determined as 176 °C. Besides, the MIC50 in data set [1] was in the range of 1 to 20 µM (≈ 0.429 to 8.57 µg/mL). In addition, the MIC50 in data set [2] is under 1 µM.

The compound `O=C(Nc1ccccc1)c1cc2sc(N3CCCCC3)nc2s1` [Compound 46] returned a melting point of 259.1 °C. Moreover, in data set [1], the MIC50 was in the range of 1 to 20 µM (≈ 0.343 to 6.87 µg/mL). Also, the MIC50 in data set [2] is under 1 µM.

Take `O=C(Nc1ccc(F)cc1)c1cc2nc(N3CCCCC3)sc2s1` [Compound 8]: the melting point turned out to be 218 °C. In data set [1], the MIC50 was in the range of 1 to 20 µM (≈ 0.361 to 7.23 µg/mL). For the same compound, the MIC50 in data set [2] was in the range of 1 to 20 µM (≈ 0.361 to 7.23 µg/mL).

`COc1cc(NC(=O)c2cc3sc(N4CCCCC4)nc3s2)cc(OC)c1` [Compound 37] yielded a melting point of 148 °C. The MIC50 in data set [1] is over 20 µM. Moreover, the MIC50 in data set [2] was over 20 µM.

`COc1ccc(NC(=O)c2cc3sc(N4CCC(F)(F)CC4)nc3s2)cc1` [Compound 72] had a melting point of 263.5 °C. Moreover, the MIC50 in data set [1] fell in the range of 1 to 20 µM (≈ 0.409 to 8.19 µg/mL). Also, the MIC50 in data set [2] is under 1 µM.

Compound `O=C(Nc1ccc(Oc2ccc(Cl)cc2)cc1)c1cc2sc(N3CCOCC3)nc2s1` [Compound 146] yielded a melting point of 225 °C. In addition, the MIC50 in data set [1] is 1 to 20 µM (≈ 0.472 to 9.44 µg/mL). Besides, the MIC50 in data set [2] is under 1 µM.

In the case of `CN(C)C(=O)C1CCN(c2nc3sc(C(=O)Nc4ccc(F)nc4)cc3s2)CC1` [Compound 137], the melting point was determined as 295.9 °C. Also, the MIC50 in data set [1] was under 1 µM. In addition, the MIC50 in data set [2] was in the range of 1 to 20 µM (≈ 0.434 to 8.67 µg/mL).

The compound `COc1ccc(NC(=O)c2cc3nc(N4CCCCC4)sc3s2)cn1` [Compound 10] registered a melting point of 270 °C. Further, the MIC50 in data set [1] is over 20 µM. Besides, the MIC50 in data set [2] is over 20 µM.

Consider `Cc1nc2cc(NC(=O)c3cc4sc(N5CCCC(C(=O)N(C)C)C5)nc4s3)ccc2o1` (stereo not drawn) [Compound 178], for which the melting point was determined as 133.6 °C. The MIC50 in data set [1] lay in the range of 1 to 20 µM (≈ 0.47 to 9.39 µg/mL). Moreover, the MIC50 in data set [2] lay within 1 to 20 µM (≈ 0.47 to 9.39 µg/mL).

The compound `COc1ccc(NC(=O)c2cc3sc(N4CCC(C(N)=O)CC4)nc3s2)cc1` [Compound 126] yielded a melting point of 276.1 °C. Moreover, the MIC50 in data set [1] fell in the range of 1 to 20 µM (≈ 0.417 to 8.33 µg/mL). Also, the MIC50 in data set [2] is over 20 µM.

In turn, `COc1ccc(NC(=O)c2cc3sc(N4CCN5CCCC5C4)nc3s2)cc1` (stereo not drawn) [Compound 100] yielded a melting point of 195 °C. For the same compound, in data set [1], the MIC50 lay within 1 to 20 µM (≈ 0.415 to 8.29 µg/mL). The MIC50 in data set [2] is under 1 µM.

Consider `Cc1nc2cc(NC(=O)c3cc4sc(N5CCOCC5C(=O)N(C)C)nc4s3)ccc2o1` (stereo not drawn) [Compound 175], for which the melting point amounted to 288.6 °C. In addition, the MIC50 in data set [1] was over 20 µM. In addition, in data set [2], the MIC50 is over 20 µM.

Compound `COc1ccc(CN(c2nc3sc(C(=O)Nc4ccc(OC)cc4)cc3s2)C(C)C)cc1` [Compound 121] returned a melting point of 131 °C. For the same compound, in data set [1], the MIC50 is over 20 µM. The MIC50 in data set [2] is under 1 µM.

The compound `COc1ccc(CNC(=O)c2cc3nc(N4CCCCC4)sc3s2)cc1` [Compound 7] displayed a melting point of 179 °C. For the same compound, the MIC50 in data set [1] is over 20 µM. Also, the MIC50 in data set [2] is over 20 µM.

In turn, `O=C(Nc1ccc(-n2ccnc2)cc1)c1cc2sc(N3CCOCC3)nc2s1` [Compound 182] showed a melting point of 266 °C. Further, in data set [1], the MIC50 is over 20 µM. Moreover, the MIC50 in data set [2] was over 20 µM.

`N#Cc1ccc(NC(=O)c2cc3sc(N4CCOCC4)nc3s2)cc1` [Compound 112] showed a melting point of 212 °C. Besides, in data set [1], the MIC50 was over 20 µM. Also, the MIC50 in data set [2] is under 1 µM.

As to `O=C(Nc1cccc(Oc2ccccc2)c1)c1cc2sc(N3CCOCC3)nc2s1` [Compound 87], the melting point is 169.5 °C. For the same compound, the MIC50 in data set [1] was in the range of 1 to 20 µM (≈ 0.438 to 8.75 µg/mL). Moreover, the MIC50 in data set [2] was 1 to 20 µM (≈ 0.438 to 8.75 µg/mL).

On to `COc1ccc(NCc2cc3sc(N4CCCCC4)nc3s2)cc1` [Compound 69], for which the melting point was determined as 105 °C. Besides, the MIC50 in data set [1] is over 20 µM. The MIC50 in data set [2] was over 20 µM.

Regarding `Cc1nc2cc(CCNC(=O)c3cc4sc(N5CCOCC5)nc4s3)ccc2o1` [Compound 177], the melting point was found to be 219.4 °C. In data set [1], the MIC50 lay within 1 to 20 µM (≈ 0.429 to 8.57 µg/mL). The MIC50 in data set [2] was under 1 µM.

Turning to `Cn1cc2ccc(NC(=O)c3cc4sc(N5CCOCC5)nc4s3)cc2n1` [Compound 132], the melting point is 313.7 °C. Also, the MIC50 in data set [1] is over 20 µM. Further, in data set [2], the MIC50 was under 1 µM.

For `COc1ccc(NC(=O)c2cc3sc(N4CCCC(OCc5ccccc5)C4)nc3s2)cc1` (stereo not drawn) [Compound 95], the melting point was found to be 169 °C. For the same compound, in data set [1], the MIC50 was over 20 µM. Also, in data set [2], the MIC50 is under 1 µM.

For the compound `COc1ccc(C(=O)Nc2cc3sc(N4CCCCC4)nc3s2)cc1` [Compound 98], the melting point worked out at 92 °C. The MIC50 in data set [1] was over 20 µM. For the same compound, the MIC50 in data set [2] was over 20 µM.

The compound `COc1ccc(CCNC(=O)c2cc3sc(N4CCCCC4)nc3s2)cc1` [Compound 42] returned a melting point of 177.2 °C. Also, the MIC50 in data set [1] lay within 1 to 20 µM (≈ 0.402 to 8.03 µg/mL). Moreover, the MIC50 in data set [2] is under 1 µM.

`COC(=O)C1CCC(NC(=O)c2cc3sc(N4CCCCC4)nc3s2)CC1` (stereo not drawn) [Compound 60] gave a melting point of 74 °C. In data set [1], the MIC50 lay within 1 to 20 µM (≈ 0.408 to 8.15 µg/mL). Further, in data set [2], the MIC50 fell in the range of 1 to 20 µM (≈ 0.408 to 8.15 µg/mL).

In the case of `O=C(Nc1ccc(O)cc1)c1cc2sc(N3CCCCC3)nc2s1` [Compound 97], the melting point was 246 °C. In addition, in data set [1], the MIC50 was 1 to 20 µM (≈ 0.359 to 7.19 µg/mL). Also, the MIC50 in data set [2] lay in the range of 1 to 20 µM (≈ 0.359 to 7.19 µg/mL).

`CCc1ccc(NC(=O)c2cc3sc(N4CCCCC4)nc3s2)cc1` [Compound 38]: the melting point was 198 °C. The MIC50 in data set [1] lay within 1 to 20 µM (≈ 0.372 to 7.43 µg/mL). Moreover, in data set [2], the MIC50 is under 1 µM.

Regarding `O=C(Nc1ccc(OCc2ccccc2)cc1)c1cc2nc(N3CCCCC3)sc2s1` [Compound 11], the melting point amounted to 223 °C. The MIC50 in data set [1] is over 20 µM. In data set [2], the MIC50 was over 20 µM.

In the case of `O=C(Nc1ccc(OC(F)(F)F)cc1)c1cc2nc(N3CCCCC3)sc2s1` [Compound 14], the melting point was 238 °C. The MIC50 in data set [1] lay within 1 to 20 µM (≈ 0.427 to 8.55 µg/mL). For the same compound, the MIC50 in data set [2] is under 1 µM.

With `CN(C)C(=O)C1CCN(c2nc3sc(C(=O)Nc4ccc(F)cc4)cc3s2)CC1` [Compound 136], the melting point is 296.2 °C. In data set [1], the MIC50 is under 1 µM. Besides, in data set [2], the MIC50 is under 1 µM.

`Cc1nc2cc(NC(=O)c3sc4nc(N5CCOCC5)sc4c3-c3ccccc3)ccc2o1` [Compound 166] displayed a melting point of 285 °C. Besides, the MIC50 in data set [1] was over 20 µM. Further, the MIC50 in data set [2] is over 20 µM.
